This passage reports IC50 results from patent US9266878B2, “Phosphatidylinositol 3-kinase inhibitors” (Gilead Calistoga LLC, priority 2012, dated 2016).

Each structure is given as a SMILES string.

Common to all, as to experiment: Enzymatic activity of PI3K isoforms, TR-FRET assay (PIP3 formation)
Holding throughout (assay type): biochemical

One experiment deals with PI3Kα (Homo sapiens (Human), UniProt P42336). In short, it runs like this:
(§1)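 Heterodimeric recombinant class I PI3K; PIP3 product displaces labeled PIP3 from GRP-1 PH domain, lowering TR-FRET. Reaction 30 min at 25° C, stopped with 10 mM EDTA, 10 nM labeled-PIP3, 35 nM Eu-GRP-1. Read Ex 340 nm, Em 615/665 nm; IC50 in nM.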

The target of the next experiment is PI3Kδ (Homo sapiens (Human), UniProt O00329). The following applies: bound given in nM. In a few lines:
as §1

The target of another experiment is PI3Kγ (Homo sapiens (Human), UniProt P48736). In short, it runs like this:
(§2)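 Recombinant heterodimeric class I PI3K enzymes were assayed by TR-FRET. PIP3 product displaces fluorescently labelled PIP3 from the GRP-1 PH domain, lowering the signal; IC50 values are given in nM.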

A further experiment concerns the target PI3Kβ (Homo sapiens (Human), UniProt P42338). In short, it runs like this: as §2

PI3Kγ, sequence (P48736 whole entry, the tested form may be a part): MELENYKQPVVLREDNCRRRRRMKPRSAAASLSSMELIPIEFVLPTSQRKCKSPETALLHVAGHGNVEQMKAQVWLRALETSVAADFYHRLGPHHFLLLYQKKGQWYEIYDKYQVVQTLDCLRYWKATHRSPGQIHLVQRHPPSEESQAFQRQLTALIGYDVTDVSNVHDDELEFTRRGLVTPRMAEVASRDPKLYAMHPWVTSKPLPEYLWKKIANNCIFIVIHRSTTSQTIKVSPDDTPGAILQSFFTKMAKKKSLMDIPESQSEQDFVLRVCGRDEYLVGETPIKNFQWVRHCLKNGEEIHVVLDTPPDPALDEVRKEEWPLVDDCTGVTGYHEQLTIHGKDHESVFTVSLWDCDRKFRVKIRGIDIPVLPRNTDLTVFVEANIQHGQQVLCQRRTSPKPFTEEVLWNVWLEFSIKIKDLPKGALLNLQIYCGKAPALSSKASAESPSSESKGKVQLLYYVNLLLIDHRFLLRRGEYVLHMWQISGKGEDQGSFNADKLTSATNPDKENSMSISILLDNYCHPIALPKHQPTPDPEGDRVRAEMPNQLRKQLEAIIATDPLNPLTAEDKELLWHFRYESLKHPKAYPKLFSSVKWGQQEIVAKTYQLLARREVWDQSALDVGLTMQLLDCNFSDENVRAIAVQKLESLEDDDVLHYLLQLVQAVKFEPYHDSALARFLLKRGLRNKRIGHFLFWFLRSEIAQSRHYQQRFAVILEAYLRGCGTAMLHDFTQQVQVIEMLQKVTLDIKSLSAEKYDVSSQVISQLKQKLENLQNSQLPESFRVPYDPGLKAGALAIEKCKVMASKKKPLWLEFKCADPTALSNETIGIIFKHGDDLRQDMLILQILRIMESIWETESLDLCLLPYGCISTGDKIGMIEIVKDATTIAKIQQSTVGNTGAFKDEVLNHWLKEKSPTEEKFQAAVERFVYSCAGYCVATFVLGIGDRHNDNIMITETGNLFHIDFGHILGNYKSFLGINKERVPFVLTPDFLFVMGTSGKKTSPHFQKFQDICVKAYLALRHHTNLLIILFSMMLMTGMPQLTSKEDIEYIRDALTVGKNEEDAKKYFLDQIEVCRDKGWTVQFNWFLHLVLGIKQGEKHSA
PI3Kγ, sequence (Q8WYR1 whole entry partner, the tested form may be a part): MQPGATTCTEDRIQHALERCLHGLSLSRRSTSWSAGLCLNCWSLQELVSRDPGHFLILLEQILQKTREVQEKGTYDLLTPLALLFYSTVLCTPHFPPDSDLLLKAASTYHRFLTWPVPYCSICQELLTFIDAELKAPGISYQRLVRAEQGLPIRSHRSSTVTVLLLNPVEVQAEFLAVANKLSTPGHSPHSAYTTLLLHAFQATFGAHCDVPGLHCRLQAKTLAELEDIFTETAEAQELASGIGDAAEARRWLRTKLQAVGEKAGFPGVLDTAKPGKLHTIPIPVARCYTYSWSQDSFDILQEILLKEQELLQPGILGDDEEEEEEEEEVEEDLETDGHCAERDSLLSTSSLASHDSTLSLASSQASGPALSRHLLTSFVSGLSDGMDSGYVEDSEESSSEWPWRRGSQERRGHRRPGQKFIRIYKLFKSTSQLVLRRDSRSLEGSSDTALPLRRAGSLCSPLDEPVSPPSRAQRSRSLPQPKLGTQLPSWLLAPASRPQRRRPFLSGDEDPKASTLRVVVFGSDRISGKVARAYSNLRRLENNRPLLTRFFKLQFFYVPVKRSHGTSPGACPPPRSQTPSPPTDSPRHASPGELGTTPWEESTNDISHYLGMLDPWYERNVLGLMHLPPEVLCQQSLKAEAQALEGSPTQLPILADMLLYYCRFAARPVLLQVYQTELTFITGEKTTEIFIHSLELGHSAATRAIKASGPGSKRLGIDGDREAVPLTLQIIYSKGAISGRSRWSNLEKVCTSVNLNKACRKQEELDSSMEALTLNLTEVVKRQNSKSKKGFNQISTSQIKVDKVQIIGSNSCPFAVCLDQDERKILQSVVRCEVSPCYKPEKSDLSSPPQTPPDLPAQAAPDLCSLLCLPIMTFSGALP
PI3Kα, sequence (P42336 whole entry, the tested form may be a part): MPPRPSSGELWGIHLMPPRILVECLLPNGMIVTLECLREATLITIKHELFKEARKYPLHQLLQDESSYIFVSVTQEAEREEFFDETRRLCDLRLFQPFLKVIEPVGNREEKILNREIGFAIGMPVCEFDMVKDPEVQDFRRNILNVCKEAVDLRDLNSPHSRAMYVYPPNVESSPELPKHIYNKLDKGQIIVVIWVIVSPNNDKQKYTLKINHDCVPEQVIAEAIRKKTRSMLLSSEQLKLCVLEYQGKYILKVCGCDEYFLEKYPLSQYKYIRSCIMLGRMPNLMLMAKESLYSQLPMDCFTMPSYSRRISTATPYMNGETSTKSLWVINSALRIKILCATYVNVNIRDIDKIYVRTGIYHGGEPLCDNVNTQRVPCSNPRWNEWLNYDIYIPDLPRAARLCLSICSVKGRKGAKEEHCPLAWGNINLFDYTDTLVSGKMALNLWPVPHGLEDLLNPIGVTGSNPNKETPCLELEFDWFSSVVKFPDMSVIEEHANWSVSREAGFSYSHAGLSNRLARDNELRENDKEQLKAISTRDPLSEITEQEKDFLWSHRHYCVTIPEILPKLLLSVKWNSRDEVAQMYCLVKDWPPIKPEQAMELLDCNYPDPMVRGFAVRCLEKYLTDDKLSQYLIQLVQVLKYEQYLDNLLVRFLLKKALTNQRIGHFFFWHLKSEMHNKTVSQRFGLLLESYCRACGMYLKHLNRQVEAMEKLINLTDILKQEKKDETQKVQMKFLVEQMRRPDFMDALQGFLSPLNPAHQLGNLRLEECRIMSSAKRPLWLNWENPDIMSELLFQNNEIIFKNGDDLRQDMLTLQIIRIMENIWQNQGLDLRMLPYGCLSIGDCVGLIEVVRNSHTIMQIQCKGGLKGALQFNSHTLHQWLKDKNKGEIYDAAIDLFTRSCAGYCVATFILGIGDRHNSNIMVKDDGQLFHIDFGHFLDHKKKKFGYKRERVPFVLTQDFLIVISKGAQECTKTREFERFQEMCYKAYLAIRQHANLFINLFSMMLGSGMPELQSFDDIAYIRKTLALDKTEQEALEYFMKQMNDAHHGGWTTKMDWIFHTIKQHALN
PI3Kα, sequence (P27986 whole entry partner, the tested form may be a part): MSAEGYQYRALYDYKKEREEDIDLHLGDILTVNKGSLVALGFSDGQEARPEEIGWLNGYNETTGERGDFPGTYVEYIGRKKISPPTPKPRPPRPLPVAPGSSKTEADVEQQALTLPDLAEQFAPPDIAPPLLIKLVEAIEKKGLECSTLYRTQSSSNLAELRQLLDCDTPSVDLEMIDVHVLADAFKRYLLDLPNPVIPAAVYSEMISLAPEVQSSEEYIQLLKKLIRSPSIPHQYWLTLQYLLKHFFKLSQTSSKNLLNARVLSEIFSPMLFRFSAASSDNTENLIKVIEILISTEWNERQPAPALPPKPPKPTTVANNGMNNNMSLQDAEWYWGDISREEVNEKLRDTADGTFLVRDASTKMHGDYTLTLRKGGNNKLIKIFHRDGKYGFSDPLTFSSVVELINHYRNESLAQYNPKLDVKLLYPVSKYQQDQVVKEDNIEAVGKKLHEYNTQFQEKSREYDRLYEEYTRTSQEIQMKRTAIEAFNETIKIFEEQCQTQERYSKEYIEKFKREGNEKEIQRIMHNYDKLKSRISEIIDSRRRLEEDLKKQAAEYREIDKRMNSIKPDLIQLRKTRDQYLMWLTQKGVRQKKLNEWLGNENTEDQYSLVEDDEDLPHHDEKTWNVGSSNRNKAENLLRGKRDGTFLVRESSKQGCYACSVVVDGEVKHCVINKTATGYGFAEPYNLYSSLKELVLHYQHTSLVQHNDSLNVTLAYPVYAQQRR
PI3Kδ, sequence (O00329 whole entry): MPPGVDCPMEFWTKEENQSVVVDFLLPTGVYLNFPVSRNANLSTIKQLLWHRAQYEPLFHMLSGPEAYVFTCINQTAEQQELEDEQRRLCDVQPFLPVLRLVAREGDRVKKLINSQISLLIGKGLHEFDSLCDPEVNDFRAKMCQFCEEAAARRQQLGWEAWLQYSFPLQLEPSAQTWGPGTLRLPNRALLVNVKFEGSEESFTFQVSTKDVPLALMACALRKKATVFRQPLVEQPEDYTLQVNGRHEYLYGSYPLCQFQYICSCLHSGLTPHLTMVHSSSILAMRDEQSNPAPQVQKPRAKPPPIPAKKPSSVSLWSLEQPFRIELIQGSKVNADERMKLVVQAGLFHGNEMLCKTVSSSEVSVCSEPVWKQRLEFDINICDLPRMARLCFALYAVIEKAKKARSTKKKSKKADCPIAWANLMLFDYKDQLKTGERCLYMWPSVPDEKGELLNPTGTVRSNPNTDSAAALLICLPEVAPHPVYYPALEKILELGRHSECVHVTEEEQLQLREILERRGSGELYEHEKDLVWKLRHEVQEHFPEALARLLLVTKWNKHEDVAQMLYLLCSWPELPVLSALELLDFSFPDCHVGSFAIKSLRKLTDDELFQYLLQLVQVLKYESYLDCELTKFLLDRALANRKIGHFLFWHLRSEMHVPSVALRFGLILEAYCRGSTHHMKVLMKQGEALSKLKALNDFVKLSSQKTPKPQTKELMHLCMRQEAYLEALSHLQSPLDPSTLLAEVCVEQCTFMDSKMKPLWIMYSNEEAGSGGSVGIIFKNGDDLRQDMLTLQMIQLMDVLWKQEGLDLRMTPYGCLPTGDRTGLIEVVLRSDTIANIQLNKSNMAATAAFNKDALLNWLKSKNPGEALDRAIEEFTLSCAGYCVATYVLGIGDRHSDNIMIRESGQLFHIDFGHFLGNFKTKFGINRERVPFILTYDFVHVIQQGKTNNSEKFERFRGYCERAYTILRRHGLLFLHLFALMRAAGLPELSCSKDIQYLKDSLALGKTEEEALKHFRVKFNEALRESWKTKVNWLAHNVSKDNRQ
PI3Kδ, sequence (P27986 whole entry partner): as the sequence (P27986 whole entry partner, the tested form may be a part) above

With `C[C@H](Nc1ncnc(N)c1C#Cc1cnc(N)cc1C(F)(F)F)c1nc2cccc(Cl)c2c(=O)n1-c1ccccc1` [Compound 18a, (S)-2-(1-(6-amino-5-((6-amino-4-(trifluoromethyl)pyridin-3-yl)ethynyl)pyrimidin-4-ylamino)ethyl)-5-chloro-3-phenylquinazolin-4(3H)-one], the IC50 on PI3Kα (bound given in nM), at PI3Kδ, against PI3Kγ (bound given in nM) and at PI3Kβ (bound given in nM) was < 100 nM each time.

As to `C[C@H](Nc1ncnc(N)c1C#Cc1cnc(N)nc1)c1nc2cccc(Cl)c2c(=O)n1-c1ccccc1` [Compound 33a, (S)-2-(1-(6-amino-5-((2-aminopyrimidin-5-yl)ethynyl)pyrimidin-4-ylamino)ethyl)-5-chloro-3-phenylquinazolin-4(3H)-one], the IC50 at PI3Kα (bound given in nM), against PI3Kδ, against PI3Kγ (bound given in nM) and against PI3Kβ (bound given in nM) was < 100 nM each time.

Consider `C[C@H](Nc1ncnc(N)c1C#Cc1ccc(F)cn1)c1nc2cccc(Cl)c2c(=O)n1-c1cc(F)cc(F)c1` (single isomer, unassigned) [Compound 9a], for which the IC50 on PI3Kα (bound given in uM) is > 1000 nM; on PI3Kδ, < 100 nM; on PI3Kγ (bound given in uM), > 1000 nM; against PI3Kβ (bound given in uM) it was > 1000 nM.

Take `Cc1ccc(F)c2nc([C@H](C)Nc3ncnc(N)c3C#Cc3ccc(F)cn3)n(-c3cccc(C#N)c3)c(=O)c12` [Compound 72a, (S)-3-(2-(1-((6-amino-5-((5-fluoropyridin-2-yl)ethynyl)pyrimidin-4-yl)amino)ethyl)-8-fluoro-5-methyl-4-oxoquinazolin-3(4H)-yl)benzonitrile]: the IC50 at PI3Kα (bound given in uM) is > 1000 nM; on PI3Kδ, < 100 nM; on PI3Kγ (bound given in uM) it was > 1000 nM; on PI3Kβ (bound given in uM) it was > 1000 nM.

Take `C[C@H](Nc1ncnc(N)c1C#CC1CC1)c1nc2cccc(Cl)c2c(=O)n1-c1ccccc1` [Compound 24a, (S)-2-(1-(6-amino-5-(cyclopropylethynyl)pyrimidin-4-ylamino)ethyl)-5-chloro-3-phenylquinazolin-4(3H)-one]: the IC50 at PI3Kα (bound given in uM) was > 1000 nM; against PI3Kδ it was < 100 nM; against PI3Kγ (bound given in uM) it was > 1000 nM; on PI3Kβ (bound given in uM), > 1000 nM.

As for `C[C@H](Nc1ncnc(N)c1C#Cc1ccc(F)cn1)c1nc2c(F)cccc2c(=O)n1-c1cc(F)cc(F)c1` [Compound 2a, (S)-2-(1-((6-amino-5-((5-fluoropyridin-2-yl)ethynyl)pyrimidin-4-yl)amino)ethyl)-3-(3,5-difluorophenyl)-8-fluoroquinazolin-4(3H)-one], the IC50 was > 1000 nM at PI3Kα (bound given in uM), < 100 nM on PI3Kδ, > 1000 nM on PI3Kγ (bound given in uM) and > 1000 nM at PI3Kβ (bound given in uM).

For the compound `C[C@H](Nc1ncnc(N)c1C#Cc1cnccn1)c1nc2cccc(C(F)F)c2c(=O)n1-c1cccc(C#N)c1` [Compound 71a, (S)-3-(2-(1-((6-amino-5-(pyrazin-2-ylethynyl)pyrimidin-4-yl)amino)ethyl)-5-(difluoromethyl)-4-oxoquinazolin-3(4H)-yl)benzonitrile], the IC50 on PI3Kα (bound given in uM) is > 1000 nM; against PI3Kδ, < 100 nM; on PI3Kγ (bound given in uM), > 1000 nM; against PI3Kβ (bound given in uM), > 1000 nM.

As to `C[C@H](O)C#Cc1c(N)ncnc1N[C@@H](C)c1nc2cccc(Cl)c2c(=O)n1-c1cc(F)cc(F)c1` [Compound 20b, 2-((S)-1-(6-amino-5-((S)-3-hydroxybut-1-ynyl)pyrimidin-4-ylamino)ethyl)-5-chloro-3-(3,5-difluorophenyl)quinazolin-4(3H)-one], the IC50 at PI3Kα (bound given in uM) was > 1000 nM; on PI3Kδ, < 100 nM; on PI3Kγ (bound given in uM), > 1000 nM; on PI3Kβ (bound given in uM), > 1000 nM.

Regarding `C[C@H](Nc1ncnc(N)c1C#Cc1cnccn1)c1nc2cccc(Cl)c2c(=O)n1C1C[C@H]2CC[C@@H](C1)N2C` (stereo partly drawn) [Compound 124a, 2-((S)-1-((6-amino-5-(pyrazin-2-ylethynyl)pyrimidin-4-yl)amino)ethyl)-5-chloro-3-((1R,5S)-8-methyl-8-azabicyclo[3.2.1]octan-3-yl)quinazolin-4(3H)-one], the IC50 was > 1000 nM on PI3Kα (bound given in uM), < 100 nM against PI3Kδ, > 1000 nM against PI3Kγ (bound given in uM) and > 1000 nM against PI3Kβ (bound given in uM).

Turning to `COc1cc(F)cc(C#Cc2c(N)ncnc2NC(C)c2nc3c(F)ccc(F)c3c(=O)n2-c2ccccc2)c1` (centres unmarked) [Compound 63a, 2-(1-((6-amino-5-((3-fluoro-5-methoxyphenyl)ethynyl)pyrimidin-4-yl)amino)ethyl)-5,8-difluoro-3-phenylquinazolin-4(3H)-one], the IC50 is > 1000 nM at PI3Kα (bound given in uM), < 100 nM against PI3Kδ, > 1000 nM on PI3Kγ (bound given in uM) and > 1000 nM against PI3Kβ (bound given in uM).

With `C[C@H](Nc1ncnc(N)c1C#Cc1ccc(N)cn1)c1nc2cccc(Cl)c2c(=O)n1-c1ccccc1` [Compound 35a, (S)-2-(1-(6-amino-5-((5-aminopyridin-2-yl)ethynyl)pyrimidin-4-ylamino)ethyl)-5-chloro-3-phenylquinazolin-4(3H)-one], the IC50 against PI3Kα (bound given in nM), on PI3Kδ, against PI3Kγ (bound given in nM) and against PI3Kβ (bound given in nM) was < 100 nM throughout.

In the case of `CC(C)CS(=O)(=O)NCc1cccc(-n2c([C@H](C)Nc3ncnc(N)c3C#Cc3ccc(F)cn3)nc3cccc(Cl)c3c2=O)c1` [Compound 131a, (S)—N-(3-(2-(1-((6-amino-5-((5-fluoropyridin-2-yl)ethynyl)pyrimidin-4-yl)amino)ethyl)-5-chloro-4-oxoquinazolin-3(4H)-yl)benzyl)-2-methylpropane-1-sulfonamide], the IC50 against PI3Kα (bound given in uM) is > 1000 nM; against PI3Kδ, < 100 nM; at PI3Kγ (bound given in uM) it was > 1000 nM; at PI3Kβ (bound given in uM) it was > 1000 nM.

`C[C@H](Nc1ncnc(N)c1C#Cc1ccc(F)cn1)c1nc2cccc(C(F)(F)F)c2c(=O)n1-c1ccccc1` [Compound 68a, (S)-2-(1-((6-amino-5-((5-fluoropyridin-2-yl)ethynyl)pyrimidin-4-yl)amino)ethyl)-3-phenyl-5-(trifluoromethyl)quinazolin-4(3H)-one]: the IC50 against PI3Kα (bound given in uM) is > 1000 nM; against PI3Kδ, < 100 nM; against PI3Kγ (bound given in uM), > 1000 nM; against PI3Kβ (bound given in uM), > 1000 nM.

In the case of `C[C@H](Nc1ncnc(N)c1C#Cc1cnccn1)c1nc2cccc(Cl)c2c(=O)n1N1CCCCCC1` [Compound 126a, (S)-2-(1-((6-amino-5-(pyrazin-2-ylethynyl)pyrimidin-4-yl)amino)ethyl)-3-(azepan-1-yl)-5-chloroquinazolin-4(3H)-one], the IC50 was > 1000 nM at PI3Kα (bound given in uM), < 100 nM on PI3Kδ, > 1000 nM at PI3Kγ (bound given in uM) and > 1000 nM on PI3Kβ (bound given in uM).

As for `C[C@H](Nc1ncnc(N)c1C#CC1CC1)c1nc2cccc(Cl)c2c(=O)n1-c1cc(F)cc(F)c1` [Compound 23a, (S)-2-(1-(6-amino-5-(cyclopropylethynyl)pyrimidin-4-ylamino)ethyl)-5-chloro-3-(3,5-difluorophenyl)quinazolin-4(3H)-one], the IC50 was > 1000 nM against PI3Kα (bound given in uM), < 100 nM against PI3Kδ, > 1000 nM at PI3Kγ (bound given in uM) and > 1000 nM against PI3Kβ (bound given in uM).

For the compound `Cc1cccc2c(=O)n(-c3ccccc3)c([C@H](C)Nc3ncnc(N)c3C#Cc3ccc(F)cn3)nc12` [Compound 56a, (S)-2-(1-((6-amino-5-((5-fluoropyridin-2-yl)ethynyl)pyrimidin-4-yl)amino)ethyl)-8-methyl-3-phenylquinazolin-4(3H)-one], the IC50 is > 1000 nM against PI3Kα (bound given in uM), < 100 nM on PI3Kδ, > 1000 nM on PI3Kγ (bound given in uM) and > 1000 nM against PI3Kβ (bound given in uM).

As for `C[C@H](Nc1ncnc(N)c1C#Cc1ccc(F)cn1)c1nc2cccc(O)c2c(=O)n1-c1ccccc1` [Compound 52a, (S)-2-(1-((6-amino-5-((5-fluoropyridin-2-yl)ethynyl)pyrimidin-4-yl)amino)ethyl)-5-hydroxy-3-phenylquinazolin-4(3H)-one], the IC50 against PI3Kα (bound given in uM) was > 1000 nM; on PI3Kδ, < 100 nM; at PI3Kγ (bound given in uM) it was > 1000 nM; against PI3Kβ (bound given in uM), > 1000 nM.

With `C[C@H](Nc1ncnc(N)c1C#Cc1ccc(F)cn1)c1nc2cccc(C(F)F)c2c(=O)n1-c1cccc(C#N)c1` [Compound 70a, (S)-3-(2-(1-((6-amino-5-((5-fluoropyridin-2-yl)ethynyl)pyrimidin-4-yl)amino)ethyl)-5-(difluoromethyl)-4-oxoquinazolin-3(4H)-yl)benzonitrile], the IC50 was > 1000 nM at PI3Kα (bound given in uM), < 100 nM on PI3Kδ, > 1000 nM on PI3Kγ (bound given in uM) and > 1000 nM against PI3Kβ (bound given in uM).

Turning to `C[C@H](Nc1ncnc(N)c1C#Cc1ncccn1)c1nc2cccc(Cl)c2c(=O)n1-c1cccnc1` [Compound 117a, (S)-2-(1-((6-amino-5-(pyrimidin-2-ylethynyl)pyrimidin-4-yl)amino)ethyl)-5-chloro-3-(pyridin-3-yl)quinazolin-4(3H)-one], the IC50 at PI3Kα (bound given in uM) is > 1000 nM; on PI3Kδ it was < 100 nM; on PI3Kγ (bound given in uM), > 1000 nM; on PI3Kβ (bound given in uM), > 1000 nM.

`C[C@H](Nc1ncnc(N)c1C#Cc1ccc(F)cn1)c1nc2cccc(F)c2c(=O)n1-c1cccc(F)c1` [Compound 99a, (S)-2-(1-((6-amino-5-((5-fluoropyridin-2-yl)ethynyl)pyrimidin-4-yl)amino)ethyl)-5-fluoro-3-(3-fluorophenyl)quinazolin-4(3H)-one]: the IC50 against PI3Kα (bound given in uM) was > 1000 nM; against PI3Kδ it was < 100 nM; against PI3Kγ (bound given in uM) it was > 1000 nM; against PI3Kβ (bound given in uM), > 1000 nM.
